Results reported in US11186564B2, “Dual NAV1.2/5HT2a inhibitors for treating CNS disorders” (Sunovion Pharmaceuticals Inc., priority 2016, dated 2021).
Like-named read-outs stand apart in the source and are kept apart here.

Key:
[1] = molecular target: human sodium channel NaV1.2 (Homo sapiens, UniProt Q99250); assay: NaV1.2 inhibition, automated patch-clamp (Q-Patch HTX), slow inactivated state (state C); type: cell-based; details: hNaV1.2 CHO cells, slow inactivated state; for IC50: read-out: NaV1.2 IC50; for inhibition at 10 µM: 10 μM compound, read-out: NaV1.2 (% inh), 10 μM; for inhibition at 1 µM: 1 μM compound, read-out: NaV1.2 (% inh), 1 μM
human sodium channel NaV1.2, sequence (Q99250 whole entry): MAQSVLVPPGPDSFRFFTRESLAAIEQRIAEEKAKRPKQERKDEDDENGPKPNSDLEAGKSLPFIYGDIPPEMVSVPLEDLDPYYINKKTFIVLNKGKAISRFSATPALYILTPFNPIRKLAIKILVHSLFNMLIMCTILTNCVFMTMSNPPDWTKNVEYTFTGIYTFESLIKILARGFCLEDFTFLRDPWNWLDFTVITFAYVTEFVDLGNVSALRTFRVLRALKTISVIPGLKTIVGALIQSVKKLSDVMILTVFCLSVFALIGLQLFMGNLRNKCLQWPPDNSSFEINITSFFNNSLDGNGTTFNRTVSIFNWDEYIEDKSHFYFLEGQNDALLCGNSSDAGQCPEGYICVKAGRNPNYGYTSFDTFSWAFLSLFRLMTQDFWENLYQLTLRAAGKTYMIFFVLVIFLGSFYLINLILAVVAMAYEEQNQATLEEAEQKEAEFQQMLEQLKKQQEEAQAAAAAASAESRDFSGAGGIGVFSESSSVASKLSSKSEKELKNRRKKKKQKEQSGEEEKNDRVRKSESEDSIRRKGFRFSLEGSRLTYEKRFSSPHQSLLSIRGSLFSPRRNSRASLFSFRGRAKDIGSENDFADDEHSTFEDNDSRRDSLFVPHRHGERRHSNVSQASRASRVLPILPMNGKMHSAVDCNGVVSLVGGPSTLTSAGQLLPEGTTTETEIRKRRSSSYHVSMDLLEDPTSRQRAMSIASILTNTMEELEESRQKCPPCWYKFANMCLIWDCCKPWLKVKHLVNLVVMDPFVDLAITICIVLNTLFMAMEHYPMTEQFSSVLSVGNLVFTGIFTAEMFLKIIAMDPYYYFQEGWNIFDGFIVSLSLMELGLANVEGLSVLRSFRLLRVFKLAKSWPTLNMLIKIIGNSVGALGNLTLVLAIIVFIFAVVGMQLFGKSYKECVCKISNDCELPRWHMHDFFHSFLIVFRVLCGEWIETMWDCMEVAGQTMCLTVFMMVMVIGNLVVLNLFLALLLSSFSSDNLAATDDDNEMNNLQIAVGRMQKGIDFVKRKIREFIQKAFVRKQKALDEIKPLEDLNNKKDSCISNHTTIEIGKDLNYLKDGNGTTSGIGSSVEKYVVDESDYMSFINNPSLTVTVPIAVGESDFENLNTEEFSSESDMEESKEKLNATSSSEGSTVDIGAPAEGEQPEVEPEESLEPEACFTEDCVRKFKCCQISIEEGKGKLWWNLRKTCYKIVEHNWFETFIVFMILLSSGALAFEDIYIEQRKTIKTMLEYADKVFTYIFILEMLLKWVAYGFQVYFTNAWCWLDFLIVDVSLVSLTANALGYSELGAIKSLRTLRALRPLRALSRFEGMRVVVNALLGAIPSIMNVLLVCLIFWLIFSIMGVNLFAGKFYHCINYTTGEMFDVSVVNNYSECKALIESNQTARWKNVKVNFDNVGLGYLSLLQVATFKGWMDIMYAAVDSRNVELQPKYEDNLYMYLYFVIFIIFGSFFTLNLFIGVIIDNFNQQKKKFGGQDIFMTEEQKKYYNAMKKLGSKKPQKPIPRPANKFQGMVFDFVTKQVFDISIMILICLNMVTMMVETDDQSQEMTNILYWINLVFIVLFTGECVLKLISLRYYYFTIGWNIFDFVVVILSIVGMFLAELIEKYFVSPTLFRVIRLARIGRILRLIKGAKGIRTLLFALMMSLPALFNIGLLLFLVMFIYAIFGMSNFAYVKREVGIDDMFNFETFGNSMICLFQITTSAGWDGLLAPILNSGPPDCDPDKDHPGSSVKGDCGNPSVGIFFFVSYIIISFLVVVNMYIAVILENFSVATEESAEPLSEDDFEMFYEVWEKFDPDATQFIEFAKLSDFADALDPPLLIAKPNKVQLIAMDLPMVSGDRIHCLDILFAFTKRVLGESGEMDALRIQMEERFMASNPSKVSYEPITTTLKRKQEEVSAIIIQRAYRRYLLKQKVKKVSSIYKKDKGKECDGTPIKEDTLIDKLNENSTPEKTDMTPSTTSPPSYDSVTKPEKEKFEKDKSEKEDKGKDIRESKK
Summary of the method: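 IC50 comes from a least-squares fit of percent inhibition, relative to vehicle, of current in the slow-inactivated state. That state is reached by a 10 s prepulse to −50 mV, then 15 ms at −90 mV, then a 5 ms test pulse to 0 mV. Human NaV1.2 in stable CHO K-1 cells, held at −100 mV, automated patch clamp.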

[2] = molecular target: T1, recombinant human serotonin receptor 5-HT2A (Homo sapiens, UniProt P28223); assay: 5-HT2A antagonist Ca2+ assay in CHO-K1 cells (method A aequorin luminescence / method B FLIPR fluorescence); type: cell-based; details: antagonist mode vs EC80 of reference agonist, method A or B
T1 construct: expressed in transfected cells; method B: loaded with Ca2+ dye
T1 sequence (P28223 whole entry): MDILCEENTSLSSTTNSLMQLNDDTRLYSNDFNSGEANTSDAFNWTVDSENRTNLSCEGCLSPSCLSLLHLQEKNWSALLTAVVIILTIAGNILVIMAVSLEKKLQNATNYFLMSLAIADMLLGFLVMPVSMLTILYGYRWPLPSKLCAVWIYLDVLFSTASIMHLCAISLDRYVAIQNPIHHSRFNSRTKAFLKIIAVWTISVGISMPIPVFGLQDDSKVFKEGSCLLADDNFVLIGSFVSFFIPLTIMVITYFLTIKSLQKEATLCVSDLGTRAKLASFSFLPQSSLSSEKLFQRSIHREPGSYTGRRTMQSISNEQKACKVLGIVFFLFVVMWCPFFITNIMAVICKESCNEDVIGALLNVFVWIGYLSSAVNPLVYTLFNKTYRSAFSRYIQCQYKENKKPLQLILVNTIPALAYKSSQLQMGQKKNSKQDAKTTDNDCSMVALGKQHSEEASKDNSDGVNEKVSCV
Summary of the method: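 IC50 was obtained by nonlinear regression of percent inhibition of the EC80 agonist Ca2+ response in CHO-K1 cells stably expressing human 5-HT2A. The readout was aequorin luminescence with agonist injected 15 min after compound (A), or Ca2+-dye fluorescence on FLIPR with serotonin as agonist (B).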

| IC50 ([2]; read-out: 5HT2A IC50) | inhibition at 10 µM [1] | inhibition at 1 µM [1] | SMILES | IC50 [1] | IC50 ([2]; 5HT2A IC50, μM) |
| --- | --- | --- | --- | --- | --- |
| 0.17 µM | 83% | – | O=C1c2ccccc2CCN1CCN1CC[C@@H](Oc2ccc(F)cc2)C1 [Example 25, (R)-2-(2-(3-(4-fluorophenoxy)pyrrolidin-1-yl)ethyl)-3,4-dihydroisoquinolin-1(2H)-one] | – | – |
| 4.81 µM | 52% | – | O[C@H](COC1CCCCC1)CN1C[C@@H]2C[C@H]1CN2Cc1ccccc1 [Example 309, (S)-1-((1S,4S)-5-benzyl-2,5-diazabicyclo[2.2.1]heptan-2-yl)-3-(cyclohexyloxy)propan-2-ol] | – | – |
| 0.26 µM | – | 29% | c1ccc2c(c1)CCC1(CCN(CC3COCc4ccccc43)CC1)O2 (stereo not shown) [Example 414, 1′-(isochroman-4-ylmethyl)spiro[chromane-2,4′-piperidine]] | – | – |
| 0.01 µM | – | 25% | O=C1CCc2ccccc2N1CCN1CCC(Oc2ccc(F)cc2)CC1 [Example 190, 1-(2-(4-(4-fluorophenoxy)piperidin-1-yl)ethyl)-3,4-dihydroquinolin-2(1H)-one] | – | – |
| 0.3 µM | – | -2% | O=C1Nc2ccccc2CC12CCN(C[C@H](O)COc1ccccc1)CC2 [Example 445, (S)-1-(2-hydroxy-3-phenoxypropyl)-1′,4′-dihydro-2′H-spiro[piperidine-4,3′-quinolin]-2′-one] | – | – |
| 1.26 µM | 99% | – | O=C(NCCN1CCCCC1)c1cccc(-c2ccc(Oc3ccc(F)cc3)cc2)n1 [Example 447, 6-(4-(4-fluorophenoxy)phenyl)-N-(2-(piperidin-1-yl)ethyl)picolinamide] | – | – |
| 4.02 µM | 27% | – | O[C@@H](COC1CCCCC1)CN1C[C@@H]2C[C@H]1CN2Cc1ccccc1 [Example 308, (R)-1-((1S,4S)-5-benzyl-2,5-diazabicyclo[2.2.1]heptan-2-yl)-3-(cyclohexyloxy)propan-2-ol] | – | – |
| 0.12 µM | – | 34% | COc1ccc2c(c1)C(CN1CCC(Oc3cccc(C)n3)CC1)CC2 (stereo not shown) [Example 124, 2-((1-((6-methoxy-2,3-dihydro-1H-inden-1-yl)methyl)piperidin-4-yl)oxy)-6-methylpyridine] | – | – |
| 0.09 µM | – | 32% | COc1ccccc1OC1CCN(CC2CCOc3ccccc32)CC1 (stereo not shown) [Example 162, 1-(chroman-4-ylmethyl)-4-(2-methoxyphenoxy)piperidine] | – | – |
| 0.62 µM | – | 48% | COc1ccccc1OC1COC2(C1)CN(CC1CCc3ccccc31)C2 (stereo not shown) [Example 363, 2-((2,3-dihydro-1H-inden-1-yl)methyl)-7-(2-methoxyphenoxy)-5-oxa-2-azaspiro[3.4]octane] | – | – |
| 0.003 µM | 91% | – | Clc1ccccc1OCCN1CCN(c2nsc3ccccc23)CC1 [Example 69, 3-(4-(2-(2-chlorophenoxy)ethyl)piperazin-1-yl)benzo[d]isothiazole] | – | – |
| 1.2 µM | – | 37% | c1ccc2c(c1)CCC1(CCN(CC3Cc4cccnc4C3)CC1)O2 (stereo not shown) [Example 411, 1′-((6,7-dihydro-5H-cyclopenta[b]pyridin-6-yl)methyl)spiro[chromane-2,4′-piperidine]] | – | – |
| 0.01 µM | – | 37% | COc1ccc2c(c1)C(CN1CCC(Oc3ccccc3C#N)CC1)CC2 (stereo not shown) [Example 98, 2-((1-((6-methoxy-2,3-dihydro-1H-inden-1-yl)methyl)piperidin-4-yl)oxy)benzonitrile] | – | – |
| 0.26 µM | – | 46% | COc1ccc2c(c1)C(CN1CC[C@H](Oc3ccccc3OC)C[C@@H]1C)CC2 (stereo partly drawn) [Example 104, (2S,4S)-1-((6-methoxy-2,3-dihydro-1H-inden-1-yl)methyl)-4-(2-methoxyphenoxy)-2-methylpiperidine] | – | – |
| 1.11 µM | – | 5% | Fc1ccc(OC2CCN(CCC3CCOCC3)CC2)cc1 [Example 170, 4-(4-fluorophenoxy)-1-(2-(tetrahydro-2H-pyran-4-yl)ethyl)piperidine] | – | – |
| 0.58 µM | – | 1% | COc1ccc2c(c1)C(CN1CCC(Oc3ccncc3)CC1)CC2 (stereo not shown) [Example 117, 4-((1-((6-methoxy-2,3-dihydro-1H-inden-1-yl)methyl)piperidin-4-yl)oxy)pyridine] | – | – |
| 0.01 µM | – | 34% | Fc1ccc(OC2CCN(CCC3COc4cccnc43)CC2)cc1 (stereo not shown) [Example 177, 3-(2-(4-(4-fluorophenoxy)piperidin-1-yl)ethyl)-2,3-dihydrofuro[3,2-b] pyridine] | – | – |
| 0.17 µM | 70% | – | O=C1c2ccccc2CCN1CCN1CC[C@H](Oc2ccc(F)cc2)C1 [Example 26, (S)-2-(2-(3-(4-fluorophenoxy)pyrrolidin-1-yl)ethyl)-3,4-dihydroisoquinolin-1(2H)-one] | – | – |

| SMILES | IC50 ([2]; read-out: 5HT2A IC50) | inhibition at 10 µM [1] | inhibition at 1 µM [1] | IC50 [1] | IC50 ([2]; 5HT2A IC50, μM) |
| --- | --- | --- | --- | --- | --- |
| OC(COC1CCCCC1)CN1CCCC2(CCN(c3ccccc3)C2)C1 (stereo not shown) [Example 356, 1-(cyclohexyloxy)-3-(2-phenyl-2,7-diazaspiro[4.5]decan-7-yl)propan-2-ol] | 0.25 µM | – | – | 610 nM | – |
| O[C@H](CO[C@@H]1CCc2ccccc21)CN1CC[C@@H](Oc2ccc(F)cc2)C1 [Example 46, (S)-1-(((R)-2,3-dihydro-1H-inden-1-yl)oxy)-3-((R)-3-(4-fluorophenoxy)pyrrolidin-1-yl)propan-2-ol] | 0.03 µM | – | 41% | – | – |
| OC(COC1CCCCC1)CN1CCN(c2ccccc2)CC1 (stereo not shown) [Example 74, 1-(cyclohexyloxy)-3-(4-phenylpiperazin-1-yl)propan-2-ol] | 0.06 µM | – | – | 50800 nM | – |
| c1ccc(O[C@@H]2COC3(C2)CN(C[C@@H]2CCc4ccccc42)C3)cc1 (single isomer, unassigned) [Compound 364] | 0.08 µM | – | – | 690 nM | – |
| O=C1Cc2ccccc2N1CCN1CCC(Oc2ccc(F)cc2)CC1 [Example 185, 1-(2-(4-(4-fluorophenoxy)piperidin-1-yl)ethyl)indolin-2-one] | – | – | 19% | – | 0.01 µM |
| OC(CO[C@@H]1CCc2ccccc21)CN1CCC(Oc2ccc(F)cc2)CC1 (stereo partly drawn) [Example 236, 1-(((R)-2,3-dihydro-1H-inden-1-yl)oxy)-3-(4-(4-fluorophenoxy)piperidin-1-yl)propan-2-ol] | 0.35 µM | – | – | 550 nM | – |
| Cc1ccc(N2CCN(CC(O)COC3CCCCC3)CC2)cc1 (stereo not shown) [Example 76, 1-(cyclohexyloxy)-3-(4-(p-tolyl)piperazin-1-yl)propan-2-ol] | 0.02 µM | – | – | 240 nM | – |
| N#Cc1cccc2c1CCC2CN1CCC(Oc2ccc(F)cc2)CC1 (stereo not shown) [Example 122, 1-((4-(4-fluorophenoxy)piperidin-1-yl)methyl)-2,3-dihydro-1H-indene-4-carbonitrile] | 0.09 µM | – | – | 110 nM | – |
| CC(=O)Nc1ccc(OCC(O)CN2CCN(c3ccc(C)c(Cl)c3)CC2)cc1 (stereo not shown) [Example 90, N-(4-(3-(4-(3-chloro-4-methylphenyl)piperazin-1-yl)-2-hydroxypropoxy)phenyl)acetamide] | 0.01 µM | – | – | 59500 nM | – |
| COc1ccc2c(c1)C(CN1CC3CCC1CN3c1ccccc1)CC2 (single isomer, unassigned) [Example 310] | 0.03 µM | – | – | 700 nM | – |
| O[C@@H](CO[C@@H]1CCc2ccccc21)CN1CC[C@@H](Oc2ccc(F)cc2)C1 [Example 47, (R)-1-(((R)-2,3-dihydro-1H-inden-1-yl)oxy)-3-((R)-3-(4-fluorophenoxy)pyrrolidin-1-yl)propan-2-ol] | 0.1 µM | – | – | 360 nM | – |
